{
  "source": "patent US6852733B2",
  "about": "“Sodium-hydrogen exchanger type 1 inhibitor” (Pfizer Inc., priority 2000, dated 2005)",
  "key": {"human NHE-1": {"molecular_target": "human NHE-1 (Homo sapiens, UniProt P19634)", "sequence (P19634 whole entry)": "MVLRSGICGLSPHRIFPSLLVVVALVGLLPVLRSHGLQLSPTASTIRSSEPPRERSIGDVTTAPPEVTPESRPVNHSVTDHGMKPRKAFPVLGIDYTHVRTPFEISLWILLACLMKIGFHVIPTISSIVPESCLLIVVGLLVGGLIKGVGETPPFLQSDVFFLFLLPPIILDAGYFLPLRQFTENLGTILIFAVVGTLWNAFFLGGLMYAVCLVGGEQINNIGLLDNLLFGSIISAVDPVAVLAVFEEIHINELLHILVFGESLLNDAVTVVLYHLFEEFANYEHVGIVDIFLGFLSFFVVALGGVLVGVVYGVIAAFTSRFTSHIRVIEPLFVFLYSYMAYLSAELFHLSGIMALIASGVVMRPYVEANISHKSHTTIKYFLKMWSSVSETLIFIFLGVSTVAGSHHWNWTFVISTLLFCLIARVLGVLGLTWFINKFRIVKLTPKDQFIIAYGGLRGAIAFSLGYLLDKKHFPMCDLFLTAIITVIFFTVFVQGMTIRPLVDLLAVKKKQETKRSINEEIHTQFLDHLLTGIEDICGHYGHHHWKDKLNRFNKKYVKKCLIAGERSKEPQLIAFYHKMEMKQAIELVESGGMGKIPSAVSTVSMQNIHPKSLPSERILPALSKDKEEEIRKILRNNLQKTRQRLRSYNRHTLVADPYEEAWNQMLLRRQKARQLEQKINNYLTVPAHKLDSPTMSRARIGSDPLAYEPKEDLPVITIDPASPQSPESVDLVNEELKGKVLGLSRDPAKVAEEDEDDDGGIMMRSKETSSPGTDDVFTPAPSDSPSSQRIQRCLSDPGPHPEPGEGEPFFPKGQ", "assay": "Measurement of human NHE-1 inhibitory activity (NHE-mediated recovery of intracellular pH, BCECF fluorescence)", "protocol": "Methodologies for measurement of human NHE-1 activity and inhibitor potency are based on those published by Watson et al., Am. J. Physiol., 24:G229-G238, 1991), where NHE-mediated recovery of intracellular pH is measured following intracellular acidification. Thus, fibroblasts stably expressing human NHE-1 (Counillon, L. et al., Mol. Pharmacol., 44:1041-1045 (1993) are plated onto collagen coated 96 well plates (50,000/well) and grown to confluence in growth media (DMEM high glucose, 10% fetal bovine serum, 50 u/ml penicillin and streptomycin). Confluent plates are incubated for 30 min at 37° C. with the pH sensitive fluorescent probe BCECF (5 μM; Molecular Probes, Eugene, Oreg.). BCECF loaded cells are incubated for 30 min at 37° C. in acid loading media (70 mM choline chloride, 50 mM NHCl4, 5 mM KCl, 1 mM MgCl2, 1.8 mM CaCl2, 5 mM glucose, 10 mM HEPES, pH 7.5), and then placed in a Fluorescent Imaging Plate Reader (Molecular Devices, CA). BCECF fluorescence is monitored using excitation and emission wavelengths of 485 nm and 525 nM, respectively. Intracellular acidification is initiated via rapid replacement of acid loading media with recovery media (120 mM NaCl, 5 mM KCl, 1 mM MgCl2, 1.8 mM CaCl2, 5 mM glucose, 10 mM HEPES, pH 7.5)±test compound, and NHE-mediated recovery of intracellular pH is monitored as the subsequent time-dependent increase BCECF fluorescence."}, "[1]": {"assay": "Identification of metabolite in human plasma samples by LC/MS/MS and LC/NMR", "format": "in vivo", "settings": "human plasma after intravenous administration of 5-cyclopropyl-1-(quinolin-5-yl)-1H-pyrazole-4-carbonyl]guanidine", "from_the_text": "It was identified from samples of human plasma obtained after intravenous administration of 5-cyclopropyl-1-(quinolin-5-yl)-1H-pyrazole-4-carbonyl]guanidine to human subjects. The structure of this compound was independently verified by chemical synthesis. In another aspect of this invention [5-cyclopropyl-1-(2-quinolon-5-yl)-1H-pyrazole-4-carbonyl]guanidine may be prepared by administering [5-cyclopropyl-1-(quinolin-5-yl)-1H-pyrazole-4-carbonyl]guanidine to a human and isolating the desired metabolite from the plasma. Alternatively, the metabolite need not be isolated from the human since it is produced in vivo. […]\nAn aliquot (100 μL or 50 μL) of the concentrated sample was injected onto an LC/MS/MS instrument equipped with a Zorbax Rx-C8 4.6×150 mm column, analyzed on PE Sciex API 2000 or Finnigan LCQ mass spectrometer and monitored by UV detector at 254 nm. […] Under these LC conditions a metabolite was detected at a retention time of 11.8 minutes ([5-cyclopropyl-1-(quinolin-5-yl)-1H-pyrazole-4-carbonyl]guanidine was detected at 13.7 minutes).\nThe salts were removed from the above concentrated sample by solid phase extraction. […] 50 μL of this sample was injected onto an LC/NMR instrument equipped with a Zorbax Rx-C8 4.6×150 mm column, analyzed on a Bruker 500 MHz NMR spectrometer and monitored by UV detector at 235 nm. […]"}},
  "data": [
    {"compound": "N=C(N)NC(=O)c1cnn(-c2cccc3[nH]c(=O)ccc23)c1C1CC1", "note": "[Formula I, [5-cyclopropyl-1-(2-quinolon-5-yl)-1H-pyrazole-4-carbonyl]guanidine]", "values": [
      {"measurement": "IC50", "setting": "human NHE-1", "value": 0.2, "unit": "µM"},
      {"measurement": "metabolite identification in human plasma", "setting": "[1]", "value": "human metabolite"}
    ]}
  ]
}
